Source: patent US12577594B2, “Engineered microorganisms and methods for improved aldehyde dehydrogenase activity” (Genomatica, Inc., priority 2019, dated 2026)

Legend:
Experiment in all cases: Kinetic characterization of purified Ald with varied substrate CoA (Example 4, Table 5)
[1] = tested on: Collinsella sp. GD7 aldehyde dehydrogenase (Ald), SEQ ID NO: 60; format: biochemical; conditions: for Catalytic efficiency kcat/KM / Km / Turnover number kcat: purified protein, substrate CoA varied, conditions similar to Example 1 (0.1 M Tris-HCl, pH 7.5)
Procedure: (§1) The lysates (5 μl) were added to an assay mixture to result in a total volume of 20 μL with final concentrations of 0.1 M Tris-HCl, pH 7.5, 2.5 mM adipyl-CoA (AdCoA), and either 0.5 mM NADH or 0.5 mM NADPH. This assay was used to screen all of the Ald enzyme candidates. Some Ald candidates were also assayed using succinyl-CoA (SuCoA) or acetyl-CoA (AcCoA) as substrates. AdCoA, SuCoA, and AcCoA were obtained from commercial suppliers. Activity was monitored by a linear decrease in fluorescence of NADH or NADPH in the presence of the CoA substrate.
(§2) Kinetic characterization was done under similar conditions as the lysate screening described in Example 1; however, in this case purified protein was used instead of cell lysates. Each of the Acidaminococcus massiliensis Ald (SEQ ID NO:28), the Collinsella sp. GD7 Ald (SEQ ID NO:60), and the Romboutsia lituseburensis DSM Ald (SEQ ID NO:107) was purified using affinity chromatography. In these assays, the concentration each of the substrate CoAs was varied to determine the turnover number (kcat), the affinity of the enzyme for the substrate (KM) of the enzyme, the catalytic efficiency (kcat/KM) of each selected Ald enzyme for each substrate were determined and shown in the Table 5 below.
(§3) Catalytic efficiency (kcat/KM) of the various aldehyde dehydrogenases using various substrates were plotted in a bar graph for comparison (FIG. 3A).

[2] = tested on: Acidaminococcus massiliensis aldehyde dehydrogenase (Ald), SEQ ID NO: 28; format: biochemical; conditions: for Catalytic efficiency kcat/KM / Km / Turnover number kcat: purified protein, substrate CoA varied, conditions similar to Example 1 (0.1 M Tris-HCl, pH 7.5)
Procedure: as §1, §2, §3

[3] = tested on: CC(=O)SCCNC(=O)CCNC(=O)[C@H](O)C(C)(C)COP(=O)(O)OP(=O)(O)OC[C@H]1O[C@@H](n2cnc3c(N)ncnc32)[C@H](O)[C@@H]1OP(=O)(O)O; format: biochemical, Romboutsia lituseburensis DSM; conditions: other: purified protein, conditions similar to Example 1 (0.1 M Tris-HCl, pH 7.5)
Procedure: as §1, §2, §3

[4] = tested on: CC(C)(COP(=O)(O)OP(=O)(O)OC[C@H]1O[C@@H](n2cnc3c(N)ncnc32)[C@H](O)[C@@H]1OP(=O)(O)O)[C@@H](O)C(=O)NCCC(=O)NCCSC(=O)CCC(=O)O; format: biochemical, Romboutsia lituseburensis DSM; conditions: other: purified protein, conditions similar to Example 1 (0.1 M Tris-HCl, pH 7.5)
Procedure: as §1, §2, §3

[5] = tested on: CC(C)(COP(=O)(O)OP(=O)(O)OC[C@H]1O[C@@H](n2cnc3c(N)ncnc32)[C@H](O)[C@@H]1OP(=O)(O)O)[C@@H](O)C(=O)NCCC(=O)NCCSC(=O)CCCCC(=O)O; format: biochemical, Romboutsia lituseburensis DSM; conditions: other: purified protein, conditions similar to Example 1 (0.1 M Tris-HCl, pH 7.5)
Procedure: as §1, §2, §3

[6] = target: Romboutsia lituseburensis DSM aldehyde dehydrogenase (Ald), SEQ ID NO: 107 (Romboutsia lituseburensis, UniProt A0A1G9MGA8); format: biochemical; conditions: ratio of kcat/KM
Procedure: as §1, §2, §3

| Molecule | Catalytic efficiency kcat/KM [1] [M⁻¹ s⁻¹] | Km [1] [µM] | Catalytic efficiency kcat/KM [2] [M⁻¹ s⁻¹] | Km [2] [µM] | Turnover number kcat [2] [s⁻¹] | Turnover number kcat [1] [s⁻¹] | further results |
| --- | --- | --- | --- | --- | --- | --- | --- |
| CC(=O)SCCNC(=O)CCNC(=O)[C@H](O)C(C)(C)COP(=O)(O)OP(=O)(O)OC[C@H]1O[C@@H](n2cnc3c(N)ncnc32)[C@H](O)[C@@H]1OP(=O)(O)O [Acetyl-CoA] | 1.6 | > 2000 | 100 | 380 | 0.040 |  |  |
| Romboutsia lituseburensis DSM aldehyde dehydrogenase (Ald), SEQ ID NO: 107 (Romboutsia lituseburensis DSM 797) |  |  |  |  |  |  | Km [3]: 310 µM; kcat [3]: 0.013 s⁻¹; kcat/Km [3]: 40 M⁻¹ s⁻¹; Km [4]: 220 µM; kcat [4]: 0.056 s⁻¹; kcat/Km [4]: 250 M⁻¹ s⁻¹; Km [5]: 240 µM; kcat [5]: 1.0 s⁻¹; kcat/Km [5]: 4000 M⁻¹ s⁻¹ |
| CC(C)(COP(=O)(O)OP(=O)(O)OC[C@H]1O[C@@H](n2cnc3c(N)ncnc32)[C@H](O)[C@@H]1OP(=O)(O)O)[C@@H](O)C(=O)NCCC(=O)NCCSC(=O)CCCCC(=O)O [Adipyl-CoA] | 150 | 100 | 3000 | 810 | 2.5 | 0.015 | Catalytic efficiency (kcat/KM) for adipyl-CoA over succinyl-CoA ([1]; ratio of kcat/KM, FIG. 3B): higher catalytic efficiency for adipyl-CoA over succinyl-CoA; Catalytic efficiency (kcat/KM) for adipyl-CoA over acetyl-CoA ([1]; ratio of kcat/KM, FIG. 3C): higher catalytic efficiency for adipyl-CoA over acetyl-CoA; Catalytic efficiency (kcat/KM) for adipyl-CoA over succinyl-CoA ([2]; ratio of kcat/KM, FIG. 3B): higher catalytic efficiency for adipyl-CoA over succinyl-CoA; Catalytic efficiency (kcat/KM) for adipyl-CoA over acetyl-CoA ([2]; ratio of kcat/KM, FIG. 3C): higher catalytic efficiency for adipyl-CoA over acetyl-CoA; Catalytic efficiency (kcat/KM) for adipyl-CoA over succinyl-CoA ([6]; FIG. 3B): higher catalytic efficiency for adipyl-CoA over succinyl-CoA; Catalytic efficiency (kcat/KM) for adipyl-CoA over acetyl-CoA ([6]; FIG. 3C): higher catalytic efficiency for adipyl-CoA over acetyl-CoA |
| CC(C)(COP(=O)(O)OP(=O)(O)OC[C@H]1O[C@@H](n2cnc3c(N)ncnc32)[C@H](O)[C@@H]1OP(=O)(O)O)[C@@H](O)C(=O)NCCC(=O)NCCSC(=O)CCC(=O)O [Succinyl-CoA] | 26 | 400 | 290 | 790 | 0.23 | 0.010 |  |
